Reference: PMC11238290, “Anti-Staphy Peptides Rationally Designed from Cry10Aa Bacterial Protein” (ACS Omega, 2024)
Where a SMILES comes first, the peptide text is derived from it.

Experiments:
[1] = Peptide stability in human serum by RP-HPLC; type: in vitro ADME; details: human serum (male AB plasma, Sigma-Aldrich), serum:peptide 5:1 v/v, peptide 256 μM, 37 °C, RP-HPLC Venusil ASB C18, PDA 216 nm; for relative peak area (%), peptide remaining in human serum, 6 h: 360 min; for peptide remaining in human serum, 24 h: triplicate
Protocol: (§1) The stability of peptides AMPCry10Aa, AMPCry10Aa_1, and AMPCry10Aa_5, against serum proteases was evaluated as previously described.[86],[87] Aliquots of filtered human serum from male AB plasma from Sigma-Aldrich were mixed with each peptide to a final concentration of 256 μM in a 5:1 v/v ratio. Each aliquot was then incubated at 37 °C, and 200 μL was collected for analysis of peptide degradation at 0, 2, 4, 6, 12, and 24 h. The samples were analyzed by reversed-phase high-performance liquid chromatography (RP-HPLC) with a Shimadzu LC system (Kyoto, Japan) using LC Solution software. A gradient method and a Venusil ASB C18 column (250 mm × 4.6 mm, 5 μm, Bonna-Agela Technologies) with an injection volume of 15 μL were used. A segmented gradient was applied with a constant flow rate of 1.0 mL min^–1 and PDA detection at 216 nm using water and acetonitrile eluents as the mobile phase. The peptide amount was quantified by subtracting the relative area of each analyzed time peak from the initial control peak area. All assays were performed in triplicate.

serum proteases = assay: Peptide stability in human serum by RP-HPLC; type: in vitro ADME; details: human serum (male AB plasma, Sigma-Aldrich), serum:peptide 5:1 v/v, peptide 256 μM, 37 °C, RP-HPLC Venusil ASB C18, PDA 216 nm, mean ± SD of three replicates; for remaining at 2 h, 256 μM: read-out: relative peak area (%), peptide remaining in human serum, 2 h; for remaining at 4 h, 256 μM: read-out: relative peak area (%), peptide remaining in human serum, 4 h; for remaining at 6 h, 256 μM: read-out: relative peak area (%), peptide remaining in human serum, 6 h; for remaining at 12 h, 256 μM: read-out: relative peak area (%), peptide remaining in human serum, 12 h
Protocol: as §1

[2] = Solubility observed in the aqueous EPR treatment solution; type: physicochemical; details: 100 μg of peptide in 50 μL of PBS (EPR treatment); observation
Source text: The EPR spectra (Figure 8A) indicate that the spin probe was structured in very rigid membranes, presenting 2A∥ values of ∼62 to ∼63 G, much higher than those found for the Leishmania parasite (∼54 G).[73]−[76] […] Pronounced increases in lipid fluidity generally create disorder in the lipid chains packaging, especially at lipid–protein interfaces, where they increase the likelihood of pore formation that could lead to electrolyte leakage and permeation of small molecules.[77]
Peptides' immediate effects on bacteria’s outermost membrane fluidity were analyzed by EPR spectroscopy. The bacteria in culture (1 × 10^9 CFU) were centrifuged and resuspended in 50 μL of PBS containing 100 μg of peptide. After 20 min of incubation, the sample was spin-labeled for the EPR experiment. To incorporate the spin label into the bacterial membranes, a 5 mg·mL^–1 ethanolic solution containing the spin label 5-doxyl stearic acid (5-DSA, Sigma-Aldrich, St. Louis, MO, USA) was added to each sample. Immediately after spin labeling, the sample was transferred to a 1 mm i.d. capillary tube, which was flame-sealed on one side. The capillary was centrifuged at 25,000 × g for 5 min, and the cell pellet of approximately 2 mm was placed in the center of the resonance cavity. […]

Row | Compound | relative peak area (%), peptide remaining in human serum, 0 h ([1]; mean ± SD of three replicates) [%] | relative peak area (%), peptide remaining in human serum, 6 h ([1]; mean ± SD of three replicates) [%] | relative peak area (%), peptide remaining in human serum, 12 h ([1]; mean ± SD of three replicates) | peptide remaining in human serum, 24 h [1] | remaining at 2 h, 256 μM (serum proteases) [%] | remaining at 4 h, 256 μM (serum proteases) [%] | remaining at 6 h, 256 μM (serum proteases) [%] | remaining at 12 h, 256 μM (serum proteases) [%] | relative peak area (%), peptide remaining in human serum, 2 h ([1]; 2 h, mean ± SD of three replicates) | solubility in the aqueous treatment solution [2]
1 | CC[C@H](C)[C@H](N)C(=O)N[C@H](C(=O)N[C@@H](CC(N)=O)C(=O)N[C@H](C(=O)N[C@@H](CCCCN)C(=O)N[C@H](C(=O)N[C@@H](CO)C(=O)N[C@@H](CC(C)C)C(=O)N[C@@H](CCCCN)C(=O)N[C@H](C(=O)N[C@H](C(=O)N[C@H](C(=O)N[C@@H](CCCCN)C(=O)N[C@@H](CC(N)=O)C(=O)N[C@@H](C)C(=O)N[C@@H](CC(C)C)C(=O)N[C@@H](CC(=O)O)C(=O)N[C@@H](CCCCN)C(=O)N[C@H](C(=O)N[C@@H](CCC(N)=O)C(N)=O)[C@@H](C)CC)[C@@H](C)CC)[C@@H](C)CC)[C@@H](C)O)[C@@H](C)O)C(C)C)[C@@H](C)CC [AMPCry10Aa_5] (H-IINVKTSLKTIIKNALDKIQ-NH2) | 92.83 ± 3.33 | 36.73 ± 1.84 | trace | no longer detectable | 81.6 ± 2.21 | 68.8 ± 0.99 | 40 | 8.11 ± 3.65 | – | –
2 | CC[C@H](C)[C@H](NC(=O)[C@H](C)NC(=O)[C@@H](NC(=O)[C@@H](NC(=O)[C@@H](NC(=O)[C@@H](NC(=O)[C@@H](NC(=O)[C@H](CCCCN)NC(=O)[C@H](CC(C)C)NC(=O)[C@H](CC(N)=O)NC(=O)[C@H](CC(=O)O)NC(=O)[C@@H](N)CCCCN)[C@@H](C)O)[C@@H](C)CC)[C@@H](C)CC)C(C)C)[C@@H](C)O)C(=O)N[C@@H](CCCCN)C(=O)N[C@@H](CC(N)=O)C(=O)N[C@H](C(=O)N[C@@H](CC(C)C)C(=O)N[C@@H](CC(=O)O)C(=O)N[C@@H](CCCCN)C(=O)N[C@@H](Cc1ccc(O)cc1)C(=O)N[C@@H](CCC(N)=O)C(N)=O)[C@@H](C)CC [AMPCry10Aa_1] (H-KDNLKTIIVTAIKNILDKYQ-NH2) | 96.93 ± 0.51 | 58.96 ± 2.33 | trace | no longer detectable | 81.8 ± 1.54 | 74.7 ± 1.98 | 60 | 4.37 ± 1.32 | – | –
3 | CC[C@H](C)[C@H](N)C(=O)N[C@H](C(=O)N[C@@H](CC(N)=O)C(=O)N[C@H](C(=O)N[C@@H](CC(C)C)C(=O)N[C@H](C(=O)N[C@@H](CO)C(=O)N[C@H](C(=O)N[C@H](C(=O)N[C@H](C(=O)N1CCC[C@H]1C(=O)N[C@H](C(=O)N[C@@H](CCCCN)C(=O)N[C@@H](CC(N)=O)C(=O)N[C@@H](CCC(N)=O)C(=O)N[C@@H](CC(C)C)C(=O)N[C@@H](CC(=O)O)C(=O)N[C@@H](CCCCN)C(=O)N[C@@H](Cc1ccc(O)cc1)C(=O)N[C@@H](CCC(N)=O)C(N)=O)[C@@H](C)CC)[C@@H](C)O)C(C)C)[C@@H](C)CC)[C@@H](C)O)C(C)C)[C@@H](C)CC [AMPCry10Aa] (H-IINVLTSIVTPIKNQLDKYQ-NH2) | 92.2 ± 3.23 | – | no longer detectable | – | 39.6 ± 2.44 | 18.6 ± 2.76 | ~0 | – | about 40% | did not dissolve
